Test results: patent US10751338B2, “Sustained-release voriconazole-containing thermogel and uses thereof” (priority 2017, dated 2020)
In brackets after ≈: the same amount, converted by molar mass.

Columns and labels:
[1] = In vitro release of voriconazole from the thermogel (Example 5); type: physicochemical
Method: Each formulation was tested in triplicate.
The injection volume was 100 μl.

[2] = Ex-vivo trans-corneal fluorescein permeation, Franz diffusion cell (Example 4); type: in vitro ADME, horse; settings: 10 μM sodium fluorescein, 6 hours, 37° C.
Method: Fresh equine corneas used in the experiment were obtained from horses enrolled in terminal laboratories performed at the AULATH. Corneoscleral buttons (16 mm diameter) were dissected using standard eye bank technique within 2 hours of enucleation. Fluorescent permeation experiments using a Franz diffusion cell method were performed to examine the integrity of the epithelial barrier function during the times studied (2 and 6 hours). Corneas were mounted horizontally between the donor and the receiving compartments of the diffusion cells (exposure window 0.64 cm^2), which were maintained at 37° C. (see FIGS. 8A and 8B).
Samples (1 ml PBS pH 7.4) were removed from the receiving compartment hourly and replaced with fresh receiving fluid. The fluorescent intensities of the receiving solution samples were analyzed using a microplate spectrofluorometer (Fluostar, BMG Labtech, Ortenberg, Germany) and a 96 well plate (Costar, Corning, N.Y.). A standard solution of NaF was prepared in PBS with a concentration range of 30 μg/ml to 0.12 μg/ml. Fluorescence was determined in a spectrofluorometer at excitation and emission wavelengths of 490 nm and 512 nm, respectively. All groups were tested in triplicate. The results were expressed as mean value±standard error of the mean (SEM).

[3] = test system: common equine fungal pathogens; settings: target MIC; cited from earlier work

With `C[C@@H](c1ncncc1F)[C@](O)(Cn1cncn1)c1ccc(F)cc1F` [Group 6, voriconazole] the “Day by which voriconazole was undetectable” value ([1]; PBS samples) was at most 6 days, the UC24 ([1]; mean, PBS, 34.5° C.) was 4133 µg·days/mL and the UC28 ([1]; mean, PBS, 34.5° C.) was 4135 µg·days/mL. For the same compound, the K release ([1]; mean, first-order release) was 0.7558 day⁻¹.

In the case of `O=C1OC2(c3ccc(O)cc3Oc3cc(O)ccc32)c2ccccc21` [fluorescein, sodium fluorescein], the “Fluorescein concentration in receiving compartment versus negative control” value [2] is reported as “not significantly different”.

In the case of `C[C@@H](c1ncncc1F)[C@](O)(Cn1cncn1)c1ccc(F)cc1F` [voriconazole], the MIC [3] is listed as 0.5 µg/mL (≈ 1.43 µM).
